Laboratory results taken from publication PMC7311426, “An amphipathic peptide with antibiotic activity against multidrug-resistant Gram-negative bacteria” (Nature Communications, 2020).
Marks after values point to notes of the source that are not given here.

Key:
Experiment in all cases: microbe, parasite or virus in culture
[1] = system: A. baumannii clinical isolates
How it was run: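 MIC90 from CLSI broth microdilution (M07-A9) in two clinical-isolate panels. US panel (331 isolates, 2010-2012): AA139 diluted in 0.01% acetic acid/0.1% BSA. Worldwide panel (445 isolates, 2011-2013, four regions): CAMHB, with 0.002% Tween 80 added for AA139 and polymyxin B.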

P. aeruginosa = conditions: mode of 6 replicates
How it was run: (§1)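 MICs were scored by eye after 18-20 h static incubation at 37 °C, with bacteria at 5 × 10^5 CFU mL^−1 in MHB. Peptides were serially diluted 2-fold over 12 points, top 128 or 64 μg mL^−1. CAMHB (CLSI) and 1% agarose-MHB variants were also run, at least six replicates.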

K. pneumoniae = conditions: mode of 6 replicates
How it was run: as §1

E. coli = system: E. coli
How it was run: as §1

A. baumannii = conditions: mode of 6 replicates
How it was run: as §1

S. aureus = S. aureus ATCC 25923 MSSA; MHB; mode of 6 replicates
How it was run: as §1

S. enterica Typhi = S. enterica Typhi ATCC 14028 control strain, CDC 6516-60; CAMHB; mode of 6 replicates
How it was run: as §1

[2] = A. baumannii, worldwide isolates 2011-2013, n = 108

## polymyxin B [PolymyxinB, reference compound]
[1]
  Number of isolates with MIC 0.125 (MIC frequency distribution): 4
[1]; [2]
  MIC50: 0.03 µg/mL
  MIC90: 0.125 µg/mL
[1]; A. baumannii, worldwide isolates 2011-2013, n = 108, count of isolates at MIC 0.03
  Number of isolates with MIC 0.03 (MIC frequency distribution): 75
[1]; A. baumannii, worldwide isolates 2011-2013, n = 108, count of isolates at MIC 0.06
  Number of isolates with MIC 0.06 (MIC frequency distribution): 18
[1]; A. baumannii, worldwide isolates 2011-2013, n = 108, count of isolates at MIC 0.25
  Number of isolates with MIC 0.25 (MIC frequency distribution): 0
[1]; A. baumannii, worldwide isolates 2011-2013, n = 108, count of isolates at MIC 0.5
  Number of isolates with MIC 0.5 (MIC frequency distribution): 2
[1]; A. baumannii, worldwide isolates 2011-2013, n = 108, count of isolates at MIC 1
  Number of isolates with MIC 1 (MIC frequency distribution): 2
[1]; A. baumannii, worldwide isolates 2011-2013, n = 108, count of isolates at MIC 2
  Number of isolates with MIC 2 (MIC frequency distribution): 1
[1]; A. baumannii, worldwide isolates 2011-2013, n = 108, count of isolates at MIC 4
  Number of isolates with MIC 4 (MIC frequency distribution): 1
[1]; A. baumannii, worldwide isolates 2011-2013, n = 108, count of isolates at MIC 8
  Number of isolates with MIC 8 (MIC frequency distribution): 3
[1]; A. baumannii, worldwide isolates 2011-2013, n = 108, count of isolates at MIC 16
  Number of isolates with MIC 16 (MIC frequency distribution): 0
[1]; A. baumannii, worldwide isolates 2011-2013, n = 108, count of isolates at MIC 32
  Number of isolates with MIC 32 (MIC frequency distribution): 0
[1]; A. baumannii, worldwide isolates 2011-2013, n = 108, count of isolates at MIC 64
  Number of isolates with MIC 64 (MIC frequency distribution): 0
[1]; A. baumannii, worldwide isolates 2011-2013, n = 108, count of isolates at MIC 128
  Number of isolates with MIC 128 (MIC frequency distribution): 0
[1]; A. baumannii, worldwide isolates 2011-2013, n = 108, count of isolates at MIC >16
  Number of isolates with MIC >16 (MIC frequency distribution): 0
[1]; A. baumannii, worldwide isolates 2011-2013, n = 108, count of isolates at MIC >32
  Number of isolates with MIC >32 (MIC frequency distribution): 0
[1]; A. baumannii, worldwide isolates 2011-2013, n = 108, count of isolates at MIC >128
  Number of isolates with MIC >128 (MIC frequency distribution): 0
[1]; A. baumannii, worldwide isolates 2011-2013, n = 108, count of isolates at MIC ≤0.015
  Number of isolates with MIC ≤0.015 (MIC frequency distribution): 2
P. aeruginosa; P. aeruginosa ATCC 27853 control strain, CAMHB
  BMD MIC: ≤0.25 µg/mL
P. aeruginosa; P. aeruginosa ATCC 27853 control strain, MHB
  BMD MIC: 0.25 µg/mL
P. aeruginosa; P. aeruginosa FADDI-070, MDR, PmxR, MHB/CAMHB
  BMD MIC: 32 µg/mL
K. pneumoniae; K. pneumoniae ATCC 13883 type strain (polymyxin/colistin heteroresistant), MHB
  BMD MIC: 0.5-8# μg mL-1
K. pneumoniae; K. pneumoniae ATCC 700603 (K6), MDR, OXA-2/SHV-18, CAMHB
  BMD MIC: 0.06 µg/mL
K. pneumoniae; K. pneumoniae ATCC 700603 (K6), MDR, OXA-2/SHV-18, MHB
  BMD MIC: 0.125 µg/mL
K. pneumoniae; K. pneumoniae BAA-2146, MDR, ESBL, NDM-1 pos, MHB
  BMD MIC: 0.125 µg/mL
K. pneumoniae; K. pneumoniae Greece CI 8_GR_13, XDR, KPC-2, PmxR, MHB
  BMD MIC: 32 µg/mL
E. coli; BMD
  MIC against E. coli AID#172 MDR clinical isolate: 0.03 µg/mL
E. coli; E. coli ATCC 25922 FDA control strain, CAMHB, mode of 6 replicates
  BMD MIC: 0.125 µg/mL
E. coli; E. coli ATCC 25922 FDA control strain, MHB, mode of 6 independent biological replicates
  BMD MIC: 0.25 µg/mL
E. coli; E. coli ATCC 700926 K12 (MG1655), CAMHB, mode of 6 replicates
  BMD MIC: 0.015 µg/mL
E. coli; E. coli ATCC 700928 CFT073 UPEC, CAMHB, mode of 6 replicates
  BMD MIC: ≤0.25 µg/mL
E. coli; E. coli CI 12-6-83 Hong Kong, mcr-1 pos, ESBL, CAMHB, mode of 6 replicates
  BMD MIC: 2 µg/mL
A. baumannii; A. baumannii ATCC 19636 type strain, CAMHB
  BMD MIC: 0.06 µg/mL
A. baumannii; A. baumannii ATCC 19636 type strain, MHB
  BMD MIC: 0.03 µg/mL
A. baumannii; A. baumannii Greece CI, XDR, PmxR, MHB
  BMD MIC: 8 to 16 µg/mL
S. aureus
  BMD MIC: 128 µg/mL
S. enterica Typhi
  BMD MIC: 0.03 µg/mL
